pIC50: −log10 of the molar value.

Sequence of TrkA (P04629 33-796): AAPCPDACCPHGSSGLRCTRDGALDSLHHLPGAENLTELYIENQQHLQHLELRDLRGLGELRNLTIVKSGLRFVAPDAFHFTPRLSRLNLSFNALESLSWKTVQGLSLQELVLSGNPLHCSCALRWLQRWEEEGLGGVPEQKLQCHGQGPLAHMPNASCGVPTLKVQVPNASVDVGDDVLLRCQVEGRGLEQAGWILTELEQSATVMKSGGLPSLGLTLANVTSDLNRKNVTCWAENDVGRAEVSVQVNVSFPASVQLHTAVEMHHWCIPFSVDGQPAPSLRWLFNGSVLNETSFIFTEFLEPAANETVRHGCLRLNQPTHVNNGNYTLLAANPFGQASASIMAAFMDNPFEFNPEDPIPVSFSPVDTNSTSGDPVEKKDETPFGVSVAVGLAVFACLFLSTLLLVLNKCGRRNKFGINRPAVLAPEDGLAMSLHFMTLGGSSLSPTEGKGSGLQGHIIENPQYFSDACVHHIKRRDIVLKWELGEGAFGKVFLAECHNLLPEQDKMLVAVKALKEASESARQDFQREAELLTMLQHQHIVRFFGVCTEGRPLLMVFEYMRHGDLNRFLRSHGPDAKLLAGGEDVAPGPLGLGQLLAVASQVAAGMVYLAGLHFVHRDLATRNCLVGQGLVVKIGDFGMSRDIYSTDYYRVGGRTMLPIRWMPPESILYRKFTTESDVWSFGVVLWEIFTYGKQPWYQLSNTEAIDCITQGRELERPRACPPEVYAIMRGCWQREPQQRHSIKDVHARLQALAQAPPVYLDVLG

This assay addresses TrkA (Homo sapiens (Human), UniProt P04629). Description: TrkA kinase HTRF enzyme inhibition assay. The assay is classed as biochemical. The settings on record: TrkA pre-incubated with 200 μM ATP. A digest of the protocol: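 HTRF ratio read-out of biotin-peptide (125 nM) phosphorylation, 1 h reaction after TrkA (2-10 nM) auto-activation with ATP (200 μM) for 20 min and 10 min compound pre-incubation in 50 mM HEPES pH 7.4 with MgCl2/MnCl2. Percent inhibition from initial rates in duplicate, fitted to single-site equation for IC50.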
Background: Time-resolved FRET reads energy transfer from a long-lived donor to a nearby acceptor.
As a reminder, the pIC50 is the negative decadic logarithm of the IC50, by convention in mol/L. Higher therefore signals a small IC50. Turning to `COc1cc(N2CCN(C(C)=O)CC2)ccc1NC(=O)c1coc2c1C(=O)C1(CCNCC1)OC2` [Example 170, N-[4-(4-acetylpiperazin-1-yl)-2-methoxyphenyl]-4-oxo-4,7-dihydrospiro[furo[2,3-c]pyran-5,4′-piperidine]-3-carboxamide], the negative-log IC50 (pIC50) is 7.25.
The result for `CCOc1nc(CCO)ccc1NC(=O)c1coc2c1C(=O)NC(C)(C)C2` [Example 143, N-[2-ethoxy-6-(2-hydroxyethyl)pyridin-3-yl]-6,6-dimethyl-4-oxo-4,5,6,7-tetrahydrofuro[3,2-c]pyridine-3-carboxamide] reads 7.61.
In the case of `COc1nc(N2CC[C@@H]3CN(C)C[C@@H]32)ccc1NC(=O)c1coc2c1C(=O)NC(C)(C)C2` [Example 130, N-{2-methoxy-6-[(3aR,6aR)-5-methylhexahydropyrrolo[3,4-b]pyrrol-1 (2H)-yl]pyridin-3-yl}-6,6-dimethyl-4-oxo-4,5,6,7-tetrahydrofuro[3,2-c]pyridine-3-carboxamide], the negative-log IC50 (pIC50) was 7.42.
Take `CCOc1nc(N2CCN(C(C)=O)CC2)ccc1NC(=O)c1coc2c1C(=O)N(C)C(C)(C)C2` [Example 173, N-[6-(4-acetylpiperazin-1-yl)-2-ethoxypyridin-3-yl]-5,6,6-trimethyl-4-oxo-4,5,6,7-tetrahydrofuro[3,2-c]pyridine-3-carboxamide]: the negative-log IC50 (pIC50) is 8.46.
With `CN1CCc2occ(C(=O)Nc3cc4cn[nH]c4cc3Cl)c2C1=O` [Example 77, N-(6-chloro-1H-indazol-5-yl)-5-methyl-4-oxo-4,5,6,7-tetrahydrofuro[3,2-c]pyridine-3-carboxamide] the figure was 6.44; with `Cn1cc2cc(NC(=O)c3coc4c3C(=O)CC(C)(CO)C4)ccc2n1` (stereo not shown) [Example 164, 6-(hydroxymethyl)-6-methyl-N-(2-methyl-2H-indazol-5-yl)-4-oxo-4,5,6,7-tetrahydro-1-benzofuran-3-carboxamide], 7.66; with `CN1CCc2occ(C(=O)Nc3ccc(O)cc3)c2C1=O` [Example 59, N-(4-hydroxyphenyl)-5-methyl-4-oxo-4,5,6,7-tetrahydrofuro[3,2-c]pyridine-3-carboxamide], 6.01.
`CS(=O)(=O)NCCn1cc2cc(NC(=O)c3coc4c3C(=O)NCC4)ccc2n1` [Example 51, N-(2-{2-[(methylsulfonyl)amino]ethyl}-2H-indazol-5-yl)-4-oxo-4,5,6,7-tetrahydrofuro[3,2-c]pyridine-3-carboxamide] gave a negative logarithm of the IC50 (pIC50) of 7.72.
The result for `CCOc1nc(N2CCN(C(C)=O)CC2)ccc1NC(=O)c1coc2c1C(=O)N(C[C@H](C)O)CC2` [Example 97, N-[6-(4-acetylpiperazin-1-yl)-2-ethoxypyridin-3-yl]-5-[(2S)-2-hydroxypropyl]-4-oxo-4,5,6,7-tetrahydrofuro[3,2-c]pyridine-3-carboxamide] reads 8.32.
With `Cc1cc2[nH]ncc2cc1NC(=O)c1coc2c1C(=O)N(C)CC2` [Example 74, 5-methyl-N-(6-methyl-1H-indazol-5-yl)-4-oxo-4,5,6,7-tetrahydrofuro[3,2-c]pyridine-3-carboxamide], the negative logarithm of the IC50 (pIC50) is 5.59.
The result for `CC(=O)N1CCN(c2ccc(NC(=O)c3coc4c3C(=O)NC(C)(C)C4)c(OC3CCOCC3)n2)CC1` [Example 180, N-[6-(4-acetylpiperazin-1-yl)-2-(tetrahydro-2H-pyran-4-yloxy)pyridin-3-yl]-6,6-dimethyl-4-oxo-4,5,6,7-tetrahydrofuro[3,2-c]pyridine-3-carboxamide] reads 7.96; that for `CCOc1nc(N2CCN(C(C)=O)CC2)ccc1NC(=O)c1coc2c1C(=O)NCC2` [Example 19, N-[6-(4-acetylpiperazin-1-yl)-2-ethoxypyridin-3-yl]-4-oxo-4,5,6,7-tetrahydrofuro[3,2-c]pyridine-3-carboxamide], 7.79.
In turn, `N#Cc1ccc(NC(=O)c2coc3c2C(=O)NCC3)cc1` [Example 39, N-(4-cyanophenyl)-4-oxo-4,5,6,7-tetrahydrofuro[3,2-c]pyridine-3-carboxamide] had a pIC50 of 6.37.
The result for `CC(C)Oc1nc(N2C[C@H]3CCN(C(=O)N4CCN(C)CC4)[C@H]3C2)ccc1NC(=O)c1coc2c1C(=O)NC(C)(C)C2` [Example 132, N-{2-isopropoxy-6-[(3aR,6aR)-1-[(4-methylpiperazin-1-yl)carbonyl]hexahydropyrrolo[3,4-b]pyrrol-5(1H)-yl]pyridin-3-yl}-6,6-dimethyl-4-oxo-4,5,6,7-tetrahydrofuro[3,2-c]pyridine-3-carboxamide] reads 8.16; that for `CCOc1nc(N2CCN(C(=NC#N)NC)CC2)ccc1NC(=O)c1coc2c1C(=O)NC1(CCC1)C2` [Example 118, N-{6-[4-(N′-cyano-N-methylcarbamimidoyl)piperazin-1-yl]-2-ethoxypyridin-3-yl}-4′-oxo-4′,7′-dihydro-5′H-spiro[cyclobutane-1,6′-furo[3,2-c]pyridine]-3′-carboxamide], 8.52.
The result for `CCOc1nc(N2CCN(C(C)=O)CC2)ccc1NC(=O)c1coc2c1C(=O)N(CCOCCO)CC2` [Example 91, N-[6-(4-acetylpiperazin-1-yl)-2-ethoxypyridin-3-yl]-5-[2-(2-hydroxyethoxyl)ethyl]-4-oxo-4,5,6,7-tetrahydrofuro[3,2-c]pyridine-3-carboxamide] reads 8.15.
Compound `CC(O)Cn1ncc2cc(NC(=O)c3coc4c3C(=O)NCC4)ccc21` (stereo not shown) [Example 50, N-[1-(2-hydroxypropyl)-1H-indazol-5-yl]-4-oxo-4,5,6,7-tetrahydrofuro[3,2-c]pyridine-3-carboxamide] gave a pIC50 of 7.04. Against the preceding compound, the pIC50 is 1.11 log units lower.
The result for `COc1nc(N2CCN(C(=O)N3CCCC3)CC2)ccc1NC(=O)c1coc2c1C(=O)NC(C)(C)C2` [Example 123, N-{2-methoxy-6-[4-(pyrrolidin-1-ylcarbonyl)piperazin-1-yl]pyridin-3-yl}-6,6-dimethyl-4-oxo-4,5,6,7-tetrahydrofuro[3,2-c]pyridine-3-carboxamide] reads 7.92; that for `CCOc1nc(N2CCN(C(C)=O)CC2)ccc1NC(=O)c1coc2c1C(=O)N(CCO)C1(CCC1)C2` [Example 116, N-[6-(4-acetylpiperazin-1-yl)-2-ethoxypyridin-3-yl]-5′-(2-hydroxyethyl)-4′-oxo-4′,7′-dihydro-5′H-spiro[cyclobutane-1,6′-furo[3,2-c]pyridine]-3′-carboxamide], 8.51; that for `COC[C@@H]1CN(c2ccc(NC(=O)c3coc4c3C(=O)NC(C)(C)C4)c(OCC(C)(C)O)n2)CCN1C(C)=O` [Example 142, N-{6-[(3S)-4-acetyl-3-(methoxymethyl)piperazin-1-yl]-2-(2-hydroxy-2-methylpropoxy)pyridin-3-yl}-6,6-dimethyl-4-oxo-4,5,6,7-tetrahydrofuro[3,2-c]pyridine-3-carboxamide], 8.74.
Regarding `O=C(Nc1ccc2[nH]cnc2c1)c1coc2c1C(=O)NCC2` [Example 12, N-(1H-benzimidazol-5-yl)-4-oxo-4,5,6,7-tetrahydrofuro[3,2-c]pyridine-3-carboxamide], the pIC50 was 7.00.
`CC(=O)N1CCN(c2ccc(NC(=O)c3coc4c3C(=O)NC(C)(C)C4)c(OC3COC3)n2)CC1` [Example 179, N-[6-(4-acetylpiperazin-1-yl)-2-(oxetan-3-yloxy)pyridin-3-yl]-6,6-dimethyl-4-oxo-4,5,6,7-tetrahydrofuro[3,2-c]pyridine-3-carboxamide] showed a negative logarithm of the IC50 (pIC50) of 8.31.
With `CC(C)(O)COc1nc(N2CCOCC2)ccc1NC(=O)c1coc2c1C(=O)NCC2` [Example 107, N-[2-(2-hydroxy-2-methylpropoxy)-6-(morpholin-4-yl)pyridin-3-yl]-4-oxo-4,5,6,7-tetrahydrofuro[3,2-c]pyridine-3-carboxamide], the pIC50 was 8.16.
The result for `Cn1cc2cc(NC(=O)c3coc4c3C(=O)CC3(CCC3)C4)ccc2n1` [Example 150, N-(2-methyl-2H-indazol-5-yl)-4-oxo-4,7-dihydro-5H-spiro[1-benzofuran-6,1′-cyclobutane]-3-carboxamide] reads 7.36; that for `CCOc1ccc(NC(=O)c2coc3c2C(=O)N(C)CC3)cn1` [Example 72, N-(6-ethoxypyridin-3-yl)-5-methyl-4-oxo-4,5,6,7-tetrahydrofuro[3,2-c]pyridine-3-carboxamide], 5.61; that for `Cn1cc2cc(NC(=O)c3coc4c3C(=O)CN(S(C)(=O)=O)C4)ccc2n1` [Example 161, N-(2-methyl-2H-indazol-5-yl)-6-(methylsulfonyl)-4-oxo-4,5,6,7-tetrahydrofuro[2,3-c]pyridine-3-carboxamide], 6.06.
With `O=C(Nc1ccc(F)cn1)c1coc2c1C(=O)NCC2` [Example 40, N-(5-fluoropyridin-2-yl)-4-oxo-4,5,6,7-tetrahydrofuro[3,2-c]pyridine-3-carboxamide] the figure was 5.49; with `CN1CCc2occ(C(=O)Nc3nc4ccccc4s3)c2C1=O` [Example 75, N-(1,3-benzothiazol-2-yl)-5-methyl-4-oxo-4,5,6,7-tetrahydrofuro[3,2-c]pyridine-3-carboxamide], 5.69; with `CC(=O)N1CCN(c2ccc(NC(=O)c3coc4c3C(=O)NCC4)cc2)CC1` [Example 10, N-[4-(4-acetylpiperazin-1-yl)phenyl]-4-oxo-4,5,6,7-tetrahydrofuro[3,2-c]pyridine-3-carboxamide], 7.25.
The result for `CN1CCc2occ(C(=O)Nc3ccc(F)cn3)c2C1=O` [Example 68, N-(5-fluoropyridin-2-yl)-5-methyl-4-oxo-4,5,6,7-tetrahydrofuro[3,2-c]pyridine-3-carboxamide] reads 5.24.
As to `COc1cc(N2CCN(S(=O)(=O)N(C)C)CC2)ccc1NC(=O)c1coc2c1C(=O)NCC2` [Example 81, N-{4-[4-(dimethylsulfamoyl)piperazin-1-yl]-2-methoxyphenyl}-4-oxo-4,5,6,7-tetrahydrofuro[3,2-c]pyridine-3-carboxamide], the negative logarithm of the IC50 (pIC50) is 7.18.

Source of the values: patent publication US9777020B2, “Furo-3-carboxamide derivatives and methods of use” (AbbVie Inc., priority 2014, dated 2017).
